From patent US9642815B2, “Biocompatible graphene quantum dots for drug delivery and bioimaging applications” (Council of Scientific and Industrial Research, priority 2013, dated 2017)
Entries after “also recorded” stand apart in the source; their conditions may differ.

Test system: ROS
Experiment: Cell free ROS assay with H2O2 and H2DCF indicator
Conditions: free PEG added to C-GQDs (FIG. 18B)
Method: The samples (C-GQDs, H-GQDs, S-GQDs and P-GQDs) were incubated with H2O2 in 10% fetal bovine serum (FBS) solution at 37° C. Chemically hydrolyzed 2,7-dichlorodihydrofluorescein diacetate (H2DCF-DA), yielding H2DCF, was used as a fluorescent indicator of ROS production. The increase in ROS over 90 min with 10 μM and 20 μM H2O2 in the presence and absence of GQDs were monitored. In the case of C-GQDs and H-GQDs incubated with 20 μM H2O2, the ROS production increased ˜3 and ˜4 times respectively (FIG. 7A). […] Thus, confirming again the ROS quenching ability of PEG. […] The H-GQDs produced more ROS than C-GQDs, likely because of more free-radical-susceptible hydroxyl groups on the surface generated by the hydrothermal treatment.

Substance: polyethylene glycol [free PEG]
- ROS quenching by free PEG in solution along with C-GQD: did not quench the ROS produced in solution; also recorded: No significant quenching
